Key:
[1] = test system: SARS-COV-2 B.1.617.2 delta; format: cell-based
[2] = test system: SARS-COV-2 B.1.1.529 omicron; format: cell-based

Compound | dose-dependent inhibition of infection [1] | reduction of infection [1] | dose-dependent inhibition of infection [2] | inhibition of infection [2] | inhibition of infection [1] | reduction of infection [2]
CC(C)(C)[C@H](NC(=O)C(F)(F)F)C(=O)N1C[C@H]2[C@@H]([C@H]1C(=O)N[C@H](C#N)C[C@@H]1CCNC1=O)C2(C)C [nirmatrelvir, Nirmatrelvir] | dose-dependent inhibition of infection | 50% | dose-dependent inhibition of infection | nearly completely inhibited | – | –
Cc1c(O)cccc1C(=O)N[C@@H](CSc1ccccc1)[C@H](O)CN1C[C@H]2CCCC[C@H]2C[C@H]1C(=O)NC(C)(C)C [nelfinavir] | dose-dependent inhibition of infection | – | dose-dependent inhibition of infection | did not completely inhibit infection | did not completely inhibit infection | –
O=c1nc(NO)ccn1[C@@H]1O[C@H](CO)[C@@H](O)[C@H]1O [EIDD-1931] | dose-dependent inhibition of infection | at least 50% | dose-dependent inhibition of infection | complete inhibition | complete inhibition | at least 50%
